# Patent US20050124498A1, “Halobenzyl substituted phenylaceto esters and amides and use thereof for prevention of harmful organisms” (priority 2002, published 2005)
# What was measured:
# [1] = system: Erysiphe graminis f.sp. hordei; assay: Erysiphe test (barley)/protective; type: in vivo; conditions: Blumeria graminis, 168 h, protective, application rate 500 g/ha, evaluation 7 days after inoculation, read-out: efficacy
# Protocol: Erysiphe test (barley)/protective [table] To produce a suitable preparation of active compound, 1 part by weight of active compound is mixed with the stated amounts of solvent and emulsifier, and the concentrate is diluted with water to the desired concentration. To test for protective activity, young plants are sprayed with the preparation of active compound at the stated application rate. After the spray coating has dried on, the plants are dusted with spores of Erysiphe graminis f.sp. hordei. The plants are placed in a greenhouse at a temperature of about 20° C. and a relative atmospheric humidity of about 80% to promote the development of mildew pustules.
# Phytophthora infestans = assay: whole plant or invertebrate; type: in vivo; conditions: in Solanum lycopersicum, 72 h, read-out: efficacy
# Sphaerotheca fuliginea = assay: Sphaerotheca test (cucumber)/protective; type: in vivo; conditions: Podosphaera fuliginea, 168 h, protective, application rate 100 g/ha, evaluation 7 days after inoculation, read-out: efficacy
# Protocol: (§1) Sphaerotheca test (cucumber)/protective [table] To produce a suitable preparation of active compound, 1 part by weight of active compound is mixed with the stated amounts of solvent and emulsifier, and the concentrate is diluted with water to the desired concentration. To test for protective activity, young plants are sprayed with the preparation of active compound at the stated application rate. After the spray coating has dried on, the plants are inoculated with an aqueous spore suspension of Sphaerotheca fuliginea. The plants are then placed in a greenhouse at about 23° C. and about 70% relative atmospheric humidity.
# [2] = system: apple scab pathogen Venturia inaequalis; assay: Venturia test (apple)/protective; type: in vivo; conditions: 240 h, protective, application rate 100 g/ha, evaluation 10 days after inoculation, read-out: efficacy
# Protocol: Venturia test (apple)/protective […] To produce a suitable preparation of active compound, 1 part by weight of active compound is mixed with the stated amounts of solvent and emulsifier, and the concentrate is diluted with water to the desired concentration. To test for protective activity, young plants are sprayed with the preparation of active compound at the stated application rate. After the spray coating has dried on, the plants are inoculated with an aqueous conidia suspension of the apple scab pathogen Venturia inaequalis and then remain in an incubation cabin at about 20° C. and 100% relative atmospheric humidity for 1 day. The plants are then placed in a greenhouse at about 21° C. and a relative atmospheric humidity of about 90%.
# [3] = system: apple mildew pathogen Podosphaera leucotricha; assay: Podosphaera test (apple)/protective; type: in vivo; conditions: 240 h, protective, application rate 100 g/ha, evaluation 10 days after inoculation, read-out: efficacy
# Protocol: as §1, with “Podosphaera” for “Sphaerotheca”, “(apple)/protective” for “(cucumber)/protective”, “the apple mildew pathogen Podosphaera leucotricha.” for “Sphaerotheca fuliginea.”
structure (smiles),measurement,setting,value
CNC(=O)/C(=N/OC)c1ccc(F)cc1Oc1ncnc(Oc2ccc(OC(F)(F)F)cc2C)c1F [Example 38],chromatographic logP,physchem; logP,3.71
CNC(=O)/C(=N/OC)c1ccc(F)cc1Oc1ncnc(Oc2cccc(Cl)c2)c1F [Example 21],chromatographic logP,physchem; logP,3.31
CNC(=O)/C(=N/OC)c1ccc(F)cc1Oc1nc(C)c(Cl)c(OCC(F)(F)C(F)(F)F)n1 [Example 13],chromatographic logP,physchem; logP,3.58
CNC(=O)/C(=N/OC)c1ccc(F)cc1Oc1ncnc(Oc2ccc(SC)cc2)c1F [Example 24],chromatographic logP,physchem; logP,3.24
CNC(=O)/C(=N/OC)c1c(F)cccc1CO/N=C(C)/C(=N\OC)c1ccc(F)cc1F [Example 55],chromatographic logP,physchem; logP,3.57
"CO/N=C(/C(=O)OC)c1c(O)cccc1F [Example (II-1), methyl (2-fluoro-6-hydroxyphenyl)methoxyiminoacetate]",chromatographic logP,"physchem; pH 2, log P (pH 2)",1.67
"CO/N=C(/C(=O)OC)c1c(C)cccc1F [Example (XVIII-1), methyl (2-fluoro-6-methylphenyl)methoxyiminoacetate]",chromatographic logP,"physchem; pH 2, log P (pH 2)",2.43
CNC(=O)/C(=N/OC)c1ccc(F)cc1Oc1ncnc(Oc2ccccc2OC)c1F [Example 20],chromatographic logP,physchem; logP,2.82
CNC(=O)/C(=N/OC)c1ccc(F)cc1Oc1ncnc(Oc2cccc(Cl)c2C)c1F [Example 10],pest or weed control at 500 g/ha,[1],≥ 98%
same,chromatographic logP,physchem; logP,3.62
CNC(=O)/C(=N/OC)c1ccc(F)cc1Oc1ncnc(Oc2ccc(SC)c(C)c2)c1F [Example 28],chromatographic logP,physchem; logP,3.54
CNC(=O)/C(=N/OC)c1ccc(F)cc1Oc1ncnc(Oc2ccccc2OC(C)C)c1F [Example 27],chromatographic logP,physchem; logP,3.32
CNC(=O)/C(=N/OC)c1ccc(F)cc1Oc1ncnc(Oc2cc(C)ccc2Cl)c1F [Example 25],chromatographic logP,physchem; logP,3.45
CO/N=C(/C(=O)OC)c1c(F)cccc1CO/N=C1\CCc2ccc(OC)cc21 [Example 49],chromatographic logP,physchem; logP,3.65
CO/N=C(\C(=O)OC)c1c(F)cccc1Oc1ncnc(Oc2cccc(Cl)c2C)c1F [Example 42],pest or weed control at 500 g/ha,[1],≥ 98%
same,chromatographic logP,physchem; logP,4.41
CNC(=O)/C(=N/OC)c1ccc(F)cc1Oc1ncnc(Oc2cccc(C#N)c2)c1F [Example 18],chromatographic logP,physchem; logP,2.71
CNC(=O)/C(=N/OC)c1ccc(F)cc1Oc1ncnc(Oc2ccc(C(F)(F)F)cc2)c1F [Example 32],chromatographic logP,physchem; logP,3.49
"CNC(=O)/C(=N/OC)c1ccc(F)cc1Oc1ncnc(Oc2ccccc2Cl)c1F [Example 7, N-methyl-2-{2-[6-(2-chlorophenoxy)-5-fluoropyrimidin-4-yloxy]-4-fluorophenyl}-2-methoxyiminoacetamide]",pest or weed control at 100 g/ha,Phytophthora infestans,≥ 86%
same,pest or weed control at 100 g/ha,Sphaerotheca fuliginea,≥ 98%
same,pest or weed control at 100 g/ha,[2],≥ 97%
same,chromatographic logP,"physchem; pH 2, log P (pH 2)",3.14
CNC(=O)/C(=N/OC)c1ccc(F)cc1Oc1ncnc(Oc2ccc(F)cc2Cl)c1F [Example 26],chromatographic logP,physchem; logP,3.27
CNC(=O)/C(=N/OC)c1ccc(F)cc1Oc1ncnc(Oc2ccc(Br)cc2C)c1F [Example 37],chromatographic logP,physchem; logP,3.57
"COC(=O)C(=O)c1c(F)cccc1OC1CCCCO1 (stereo not drawn) [Example (XIII-1), methyl [2-fluoro-6-(tetrahydropyran-2-yloxy)phenyl]oxoacetate]",chromatographic logP,"physchem; pH 2, log P (pH 2)",2.78
CNC(=O)/C(=N/OC)c1ccc(F)cc1Oc1ncnc(Oc2cccc(Cl)c2Cl)c1F [Example 33],pest or weed control at 100 g/ha,Phytophthora infestans,≥ 86%
same,pest or weed control at 100 g/ha,[3],≥ 82%
same,pest or weed control at 100 g/ha,Sphaerotheca fuliginea,≥ 98%
same,pest or weed control at 100 g/ha,[2],≥ 97%
same,chromatographic logP,physchem; logP,3.53
"COC(=O)C(=O)c1c(C)cccc1F [Example (XIX-1), methyl (2-fluoro-6-methylphenyl)oxoacetate]",chromatographic logP,"physchem; pH 2, log P (pH 2)",2.44
CNC(=O)/C(=N/OC)c1c(F)cccc1CO/N=C(C)/C(=N\OC)c1ccc(F)cc1 [Example 59],chromatographic logP,physchem; logP,3.5
"CNC(=O)/C(=N/OC)c1c(F)cccc1COc1ccccc1C [Example 9, N-methyl-2-(2-fluoro-6-o-tolyloxymethylphenyl)-2-methoxyiminoacetamide]",pest or weed control at 100 g/ha,Phytophthora infestans,≥ 86%
same,pest or weed control at 100 g/ha,[3],≥ 82%
same,pest or weed control at 100 g/ha,Sphaerotheca fuliginea,≥ 98%
same,pest or weed control at 100 g/ha,[2],≥ 97%
same,chromatographic logP,"physchem; pH 2, log P (pH 2)",3.03
CNC(=O)/C(=N/OC)c1ccc(F)cc1Oc1ncnc(Oc2ccccc2C#N)c1F [Example 11],chromatographic logP,physchem; logP,2.68
CO/N=C(/C(=O)OC)c1c(F)cccc1Oc1cc(C(F)(F)F)ncn1 [Example 53],chromatographic logP,physchem; logP,2.91
CNC(=O)/C(=N/OC)c1c(F)cccc1Oc1nccc(OCC(F)(F)C(F)(F)F)n1 [Example 44],pest or weed control at 500 g/ha,[1],≥ 98%
same,chromatographic logP,physchem; logP,2.89
CNC(=O)/C(=N/OC)c1c(F)cccc1CO/N=C(C)/C(=N\OC)c1ccc(C)cc1 [Example 58],chromatographic logP,physchem; logP,3.71
CO/N=C(\C(=O)OC)c1c(F)cccc1Oc1ccccc1 [Example 43],pest or weed control at 500 g/ha,[1],≥ 98%
same,chromatographic logP,physchem; logP,3.42
CNC(=O)/C(=N/OC)c1ccc(F)cc1Oc1ncnc(Oc2ccc(OC)cc2Cl)c1F [Example 29],chromatographic logP,physchem; logP,3.2
CNC(=O)/C(=N/OC)c1ccc(F)cc1Oc1ncnc(Oc2cccc(C(F)(F)F)c2)c1F [Example 30],chromatographic logP,physchem; logP,3.46
"CNC(=O)/C(=N/OC)c1c(F)cccc1Oc1ccccc1 [Example 4, 2-(2-fluoro-6-phenoxyphenyl)-2-methoxyimino-N-methylacetamide]",pest or weed control at 500 g/ha,[1],≥ 98%
same,chromatographic logP,"physchem; pH 2, log P (pH 2)",2.56
CNC(=O)/C(=N/OC)c1ccc(F)cc1Oc1ncnc(Oc2ccccc2OC(F)(F)F)c1F [Example 35],pest or weed control at 100 g/ha,[3],≥ 82%
same,pest or weed control at 100 g/ha,Sphaerotheca fuliginea,≥ 98%
same,pest or weed control at 100 g/ha,[2],≥ 97%
same,chromatographic logP,physchem; logP,3.27
CNC(=O)/C(=N/OC)c1ccc(F)cc1Oc1ncnc(Oc2cccc(OC(F)(F)F)c2)c1F [Example 36],chromatographic logP,physchem; logP,3.46
"CO/N=C(/C(=O)OC)c1c(F)cccc1Oc1ccccc1 [Example 3, methyl (2-fluoro-6-phenoxyphenyl)methoxyiminoacetate]",pest or weed control at 500 g/ha,[1],≥ 98%
same,chromatographic logP,"physchem; pH 2, log P (pH 2)",3.24
CNC(=O)/C(=N/OC)c1ccc(F)cc1Oc1nccc(OCC(F)(F)C(F)(F)F)n1 [Example 40],pest or weed control at 500 g/ha,[1],≥ 98%
same,chromatographic logP,physchem; logP,2.87
CO/N=C(\C(C)=N\OCc1cccc(F)c1/C(=N\OC)C(=O)OC)c1ccc(F)cc1F [Example 54],chromatographic logP,physchem; logP,4.13
"CNC(=O)/C(=N/OC)c1c(O)cccc1F [Example (II-2), 2-(2-fluoro-6-hydroxyphenyl)-2-methoxyimino-N-methylacetamide]",chromatographic logP,"physchem; pH 2, log P (pH 2)",1.18
"CNC(=O)/C(=N/OC)c1ccc(F)cc1O [Example (II-4), 2-(4-fluoro-2-hydroxyphenyl)-2-methoxyimino-N-methylacetamide]",chromatographic logP,"physchem; pH 2, log P (pH 2)",1.56
CNC(=O)/C(=N/OC)c1ccc(F)cc1Oc1ncnc(Oc2ccccc2C)c1F [Example 15],pest or weed control at 100 g/ha,Phytophthora infestans,≥ 86%
same,pest or weed control at 100 g/ha,[3],≥ 82%
same,pest or weed control at 100 g/ha,Sphaerotheca fuliginea,≥ 98%
same,pest or weed control at 100 g/ha,[2],≥ 97%
same,chromatographic logP,physchem; logP,3.2
CNC(=O)/C(=N/OC)c1ccc(F)cc1Oc1ncnc(Oc2ccccc2Br)c1F [Example 34],chromatographic logP,physchem; logP,3.22
CNC(=O)/C(=N/OC)c1ccc(F)cc1Oc1ncnc(Oc2ccccc2SC)c1F [Example 23],chromatographic logP,physchem; logP,3.07
"COC(=O)C(=O)c1ccc(F)cc1O [Example (XIV-1), methyl (4-fluoro-2-hydroxyphenyl)oxo-acetate]",chromatographic logP,"physchem; pH 2, log P (pH 2)",2.1
CNC(=O)/C(=N/OC)c1ccc(F)cc1Oc1ncnc(Oc2ccc(SC(F)(F)F)cc2)c1F [Example 39],chromatographic logP,physchem; logP,3.75
CNC(=O)/C(=N/OC)c1ccc(F)cc1Oc1ncnc(Oc2cccc(F)c2)c1F [Example 17],chromatographic logP,physchem; logP,3.07
"CO/N=C(/C(=O)OC)c1ccc(F)cc1O [Example (II-3), methyl (4-fluoro-2-hydroxyphenyl)methoxyiminoacetate]",chromatographic logP,"physchem; pH 2, log P (pH 2)",2.62
CNC(=O)/C(=N/OC)c1ccc(F)cc1Oc1ncnc(Oc2cccc(OC)c2)c1F [Example 19],chromatographic logP,physchem; logP,2.91
CNC(=O)/C(=N\OC)c1c(F)cccc1Oc1ccccc1 [Example 41],pest or weed control at 500 g/ha,[1],≥ 98%
same,chromatographic logP,physchem; logP,2.49
CNC(=O)/C(=N/OC)c1c(F)cccc1CO/N=C1\CCc2ccc(OC)cc21 [Example 52],chromatographic logP,physchem; logP,3.08
